In US5147876A, “2,6-di,2,4,6-, 2,5,6-tri and 2,4,5,6-tetra-substituted pyrimidines, their pharmaceutically acceptable salts, pharmaceutical compositions containing same and their use in the treatment of neurological diseases” (Mitsui Petrochemical Industries, Ltd., priority 1988, dated 1992):

Key:
[1] = test system: neuro-2a (mouse neuroblastoma cells); experiment: Action on neuro-2a: proportion of cells containing outgrown neurites; type: cell-based; conditions: mean ± S.D.
How it was run: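 Mouse neuro-2a cells at 1,000 cells/well in DMEM with 10% FCS were cultured one day at 37 °C, 5% CO2, then glutaraldehyde-fixed and methylene-blue-stained. The proportion of cells bearing a neurite at least twice the cell's long diameter was counted over >200 cells; up to 6 concentrations, triplicate runs.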

[2] = test system: NS-20Y (mouse neuroblastoma cells); experiment: Activity on NS-20Y cells: appearance of neurites; type: cell-based
Method: The effects of the compounds of this invention on neuroblastoma cells were examined by the following method.
Mouse neuro 2a cells in the logarithmic growth period in the Dulbecco's modified Eagle's medium DMEM, containing 100 units/ml of penicillin G sodium and 100 micrograms/ml of streptomycin sulfate]containing 10 % of FCS were seeded in a 48-well plate so that the number of cells was 1,000 cells/well, and cultured for one day in 0.25 ml of the culture fluid in each well in an incubator containing 5 % of carbon dioxide gas in air at 37° C. Then, a 4 % aqueous glutaraldehyde solution in the same amount as a medium (0.25 ml) was added, and the culture fluid was left to stand at room temperature for 2 hours to fix the cells. After washing with water, a 0.05 % aqueous solution of methylene blue was added to stain the cells Under a microscope, the number of cells containing outgrown neurites (cells having at least one neurite with a length of at least two times as large as the long diameter of the cell) was counted visually, and the proportion of these cells in the entire cells was calculated. The well was observed over 5 or more visual fields (at least 2 % of the entire surface area of the well) continuous to the left and right from a mark put at the center of the well, and more than 200 cells was counted. One drug compound was used in 6 different concentrations at most, and three runs were conducted for each concentrations.
Mouse neuroblastoma cells NS-20Y were similarly cultured in a dish coated with polyornithine, and the effects of the compounds were examined.

[3] = Acute toxicity on mice; type: in vivo; conditions: mouse, in vivo, ip, 24 hours after administration; read-out: Estimated LD50
Method: The acute toxicity of the compounds of the invention was examined by the following method.
Male ddy-strain 5-week old mice, 4-6- per group, were used as experimental animals. Each of the compounds was intraperitoneally (i.p.), and the toxicity of the compound was assessed 24 hours after the administration.

Row | SMILES | Number of cells having neurites with a length at least two times the diameter of each cell/total number of cells ([1]; 0.03 mM) [%] | Number of cells having neurites with a length at least two times the diameter of each cell/total number of cells ([1]; 0.1 mM) [%] | LD50 at 24 h [3] [mg/kg] | Number of cells having neurites with a length at least two times the diameter of each cell/total number of cells ([1]; 0.3 mM) [%] | other results
1 | Cc1cnc(N2CCC(c3ccccc3)CC2)nc1N(C)C(=O)c1ccccc1 [Compound 424] | 4.5 ± 1.4 | 7.6 ± 1.3 | > 1000 |  | Number of cells in which neurites appeared/total number of cells ([2]; 24 hours, 0.4 mM): 16/50; Number of cells in which neurites appeared/total number of cells ([2]; 48 hours, 0.4 mM): 3/50
2 | Cc1cc(N(C)C(=O)c2ccccc2)nc(N2CCC(c3ccccc3)CC2)n1 [Compound 400] |  |  | 500 to 1000 | 11.4 ± 4.3 | Number of cells having neurites with a length at least two times the diameter of each cell/total number of cells ([1]; 1 mM): 16.0 ± 2.7%; Number of cells in which neurites appeared/total number of cells ([2]; 24 hours, 0.1 mM): 9/50; Number of cells in which neurites appeared/total number of cells ([2]; 24 hours, 0.4 mM): 30/53; Number of cells in which neurites appeared/total number of cells ([2]; 48 hours, 0.1 mM): 3/50; Number of cells in which neurites appeared/total number of cells ([2]; 48 hours, 0.4 mM): 3/48
3 | CNc1cc(C)nc(N2CCC(c3ccccc3)CC2)n1 [Compound 1090] | 5.7 ± 0.6 | 12.2 ± 2.5 | 500 to 1000 | 10.3 ± 0.9 | Number of cells having neurites with a length at least two times the diameter of each cell/total number of cells ([1]; 0.01 mM): 3.7 ± 1.0%; Number of cells in which neurites appeared/total number of cells ([2]; 24 hours, 0.02 mM): 4/50; Number of cells in which neurites appeared/total number of cells ([2]; 24 hours, 0.1 mM): 21/50; Number of cells in which neurites appeared/total number of cells ([2]; 48 hours, 0.1 mM): 3/50
4 | O=C(c1ccccc1)N(Cc1ccccc1)c1nccc(N2CCC(c3ccccc3)CC2)n1 [Compound 660] | 13.5 ± 1.3 | 9.1 ± 3.7 | 500 to 1000 |  | Number of cells in which neurites appeared/total number of cells ([2]; 24 hours, 0.1 mM): 5/50; Number of cells in which neurites appeared/total number of cells ([2]; 48 hours, 0.1 mM): 4/50
5 | CN(C(=O)c1ccccc1)c1ccnc(N2CCCc3ccccc32)n1 [Compound 328] | 10.2 ± 8.2 | 28.0 ± 6.8 | > 1000 | 10.6 ± 3.4 | Number of cells having neurites with a length at least two times the diameter of each cell/total number of cells ([1]; 0.01 mM): 6.6 ± 0.5%; Number of cells in which neurites appeared/total number of cells ([2]; 24 hours, 0.1 mM): 32/50; Number of cells in which neurites appeared/total number of cells ([2]; 48 hours, 0.025 mM): 8/50; Number of cells in which neurites appeared/total number of cells ([2]; 48 hours, 0.1 mM): 12/51
6 | CN(C(=O)c1ccccc1)c1nccc(N2CCC(c3ccccc3)CC2)n1 [Compound 628] | 10.2 ± 1.3 | 13.4 ± 3.2 | 500 to 1000 | 12.6 ± 3.2 | Number of cells having neurites with a length at least two times the diameter of each cell/total number of cells ([1]; 1 mM): 10.0 ± 3.9%; Number of cells in which neurites appeared/total number of cells ([2]; 24 hours, 0.1 mM): 9/50; Number of cells in which neurites appeared/total number of cells ([2]; 48 hours, 0.1 mM): 3/50
7 | CN(C(=O)C1CCCCC1)c1ccnc(N2CCC(c3ccccc3)CC2)n1 [Compound 232] | 3.9 ± 1.8 | 18.7 ± 5.2 | > 1000 |  | Number of cells in which neurites appeared/total number of cells ([2]; 24 hours, 0.025 mM): 2/50; Number of cells in which neurites appeared/total number of cells ([2]; 48 hours, 0.01 mM): 2/49
8 | CCCN(C(=O)c1ccccc1)c1ccnc(N2CCC(c3ccccc3)CC2)n1 [Compound 184] |  | 18.8 ± 4.7 | > 1000 | 16.0 ± 2.4 | Number of cells in which neurites appeared/total number of cells ([2]; 24 hours, 0.02 mM): 8/50; Number of cells in which neurites appeared/total number of cells ([2]; 24 hours, 0.1 mM): 5/48; Number of cells in which neurites appeared/total number of cells ([2]; 48 hours, 0.02 mM): 3/50
9 | CN1CCN(c2nccc(N(C)C(=O)c3ccccc3)n2)CC1 [Compound 352] |  | 3.2 ± 1.9 | 500 to 1000 | 9.9 ± 1.6 | 
10 | CN(C(=O)c1ccccc1)c1ccnc(N2CCC(C)(C)CC2)n1 [Compound 2116] |  | 34.2 ± 3.8 | 500 to 1000 | 8.2 ± 3.6 | 
11 | CN(C(=O)Cc1ccccc1)c1ccnc(N2CCC(c3ccccc3)CC2)n1 [Compound 2250] |  | 10.9 ± 3.9 | 500 to 1000 | 19.2 ± 1.0 | 
12 | CN(C(=O)c1ccccc1)c1ccnc(N2CCCC3CCCCC32)n1 (centres unmarked) [Compound 2156] | 8.6 ± 1.0 | 19.6 ± 5.3 | > 1000 |  | 
13 | CC(C)C1CCN(c2nccc(N(C)C(=O)c3ccccc3)n2)CC1 [Compound 147-1] | 6.6 ± 0.4 | 30.5 ± 6.1 | > 1000 |  | 
14 | CON(C(=O)c1ccccc1)c1ccnc(N2CCC(c3ccccc3)CC2)n1 [Compound 2318] | 7.7 ± 1.4 | 35.1 ± 1.3 | 500 to 1000 | 18.6 ± 5.2 | Number of cells having neurites with a length at least two times the diameter of each cell/total number of cells ([1]; 1 mM): 8.8 ± 1.3%
15 | CCN(CC)C(=O)N(C)c1ccnc(N2CCC(c3ccccc3)CC2)n1 [Compound 2302] | 8.0 ± 2.7 | 8.2 ± 4.7 | 500 to 1000 |  | 
16 | CN(C)c1nccc(N(C)C(=O)c2ccccc2)n1 [Compound 104] | 2.5 ± 0.8 | 4.1 ± 1.5 | 500 to 1000 | 7.7 ± 3.8 | Number of cells having neurites with a length at least two times the diameter of each cell/total number of cells ([1]; 1 mM): 3.6 ± 1.4%
17 | CN(C(=O)c1ccccc1)c1ccnc(N2CCC(C(=O)c3ccc(Cl)cc3)CC2)n1 [Compound 2310] |  | 8.3 ± 1.8 | 500 to 1000 | 12.1 ± 3.6 | 
18 | CN(C(=O)c1ccccc1)c1ccnc(NC2CN3CCC2CC3)n1 (centres unmarked) [Compound 2342] | 5.9 ± 2.1 | 11.4 ± 1.4 | 500 to 1000 |  | 
19 | CCOc1ccc(C(=O)N(C)c2ccnc(N3CCC(c4ccccc4)CC3)n2)cc1 [Compound 171-5] |  | 28.4 ± 2.2 | > 1000 | 32.7 ± 0.6 | Number of cells having neurites with a length at least two times the diameter of each cell/total number of cells ([1]; 0.01 mM): 7.2 ± 1.1%; Number of cells having neurites with a length at least two times the diameter of each cell/total number of cells ([1]; 1 mM): 14.0 ± 4.1%
20 | CN(C(=O)N1CCCCC1)c1ccnc(N2CCC(c3ccccc3)CC2)n1 [Compound 2210] | 9.5 ± 2.0 | 9.5 ± 1.9 | 500 to 1000 |  | 
21 | CN1C(=O)Cc2cnc(N3CCN(C(c4ccc(Cl)cc4)c4ccc(Cl)cc4)CC3)nc21 [Compound 3176] | 7.3 ± 3.3 | 23.1 ± 4.8 | 500 to 1000 | 21.2 ± 4.9 | Number of cells having neurites with a length at least two times the diameter of each cell/total number of cells ([1]; 1 mM): 14.6 ± 5.0%
22 | CCCC1CCN(c2nccc(N(C)C(=O)c3ccccc3)n2)CC1 [Compound 146] | 8.7 ± 2.0 | 40.0 ± 6.1 | > 1000 |  | 
